Where “and” joins values, the source holds several entries; their conditions need not be identical. Equal values may be shown once. Inconclusive results and toxic doses are left out. Cut-off read from the data, not from the text of the source: active = T/C of 150% or more; inactive = T/C below 125%.
Tested on: L1210 leukemia ip in BDF1 mice, survival T/C
Test: NCI In Vivo Anticancer Drug Screen. Data for tumor model L1210 Leukemia (intraperitoneal) in B6D2F1 (BDF1) mice
Conditions: endpoint: mean survival time, higher = longer survival
How it was run: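 Transplantable tumor model; survival measured in treated vs vehicle control mice. Value = treated/control.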

[1] = dose: 100.0 mg/kg/injection, schedule: Q01DX001 (ip), vehicle: Klucel (hydroxypropylcellulose) (HPC)
[2] = dose: 100.0 mg/kg/injection, schedule: Q01DX009 (ip), vehicle: Klucel (hydroxypropylcellulose) (HPC)
[3] = dose: 100.0 mg/kg/injection, schedule: Q04DX002 (ip), vehicle: Klucel (hydroxypropylcellulose) (HPC)
[4] = dose: 100.0 mg/kg/injection, schedule: Q04DX003 (ip), vehicle: Klucel (hydroxypropylcellulose) (HPC)
[5] = dose: 200.0 mg/kg/injection, schedule: Q01DX001 (ip), vehicle: Klucel (hydroxypropylcellulose) (HPC)
[6] = dose: 200.0 mg/kg/injection, schedule: Q01DX009 (ip), vehicle: Klucel (hydroxypropylcellulose) (HPC)
[7] = dose: 200.0 mg/kg/injection, schedule: Q04DX002 (ip), vehicle: Klucel (hydroxypropylcellulose) (HPC)
[8] = dose: 200.0 mg/kg/injection, schedule: Q04DX003 (ip), vehicle: Klucel (hydroxypropylcellulose) (HPC)
[9] = dose: 400.0 mg/kg/injection, schedule: Q01DX009 (ip), vehicle: Klucel (hydroxypropylcellulose) (HPC)
[10] = dose: 400.0 mg/kg/injection, schedule: Q04DX002 (ip), vehicle: Klucel (hydroxypropylcellulose) (HPC)
[11] = dose: 400.0 mg/kg/injection, schedule: Q04DX003 (ip), vehicle: Klucel (hydroxypropylcellulose) (HPC)
[12] = dose: 100.0 mg/kg/injection, schedule: Q01DX009 (ip), vehicle: saline with Tween-80
[13] = dose: 100.0 mg/kg/injection, schedule: Q04DX003 (ip), vehicle: saline with Tween-80
[14] = dose: 200.0 mg/kg/injection, schedule: Q01DX009 (ip), vehicle: saline with Tween-80
[15] = dose: 200.0 mg/kg/injection, schedule: Q04DX003 (ip), vehicle: saline with Tween-80
[16] = dose: 400.0 mg/kg/injection, schedule: Q01DX009 (ip), vehicle: saline with Tween-80
[17] = dose: 400.0 mg/kg/injection, schedule: Q04DX003 (ip), vehicle: saline with Tween-80
[18] = dose: 50.0 mg/kg/injection, schedule: Q04DX003 (ip), vehicle: saline
[19] = dose: 100.0 mg/kg/injection, schedule: Q04DX003 (ip), vehicle: saline
[20] = dose: 200.0 mg/kg/injection, schedule: Q04DX003 (ip), vehicle: saline
[21] = dose: 400.0 mg/kg/injection, schedule: Q04DX003 (ip), vehicle: saline
[22] = dose: 100.0 mg/kg/injection, schedule: Q04DX002 (ip), vehicle: saline
[23] = dose: 200.0 mg/kg/injection, schedule: Q04DX002 (ip), vehicle: saline
[24] = dose: 400.0 mg/kg/injection, schedule: Q04DX002 (ip), vehicle: saline
[25] = dose: 100.0 mg/kg/injection, schedule: Q01DX001 (ip), vehicle: saline with Tween-80
[26] = dose: 200.0 mg/kg/injection, schedule: Q01DX001 (ip), vehicle: saline with Tween-80

Measured: T/C

Cc1ncc(C(=O)O)n1C(C)c1ccccc1 (stereo unspecified)
inactive: [1] 100 % of control | [2] 94 % of control and 104 % of control | [3] 94 % of control and 100 % of control and 102 % of control | [4] 93 % of control | [5] 109 % of control | [6] 100 % of control | [7] 94 % of control and 99 % of control and 100 % of control | [8] 95 % of control | dose: 400.0 mg/kg/injection, schedule: Q01DX001 (ip), vehicle: Klucel (hydroxypropylcellulose) (HPC) 96 % of control | [9] 97 % of control and 100 % of control | [10] 98 % of control and 103 % of control and 104 % of control | [11] 96 % of control

CCCN(CCC)N=Nc1ccccc1-c1nc(N)c2ccccc2n1
inactive: [4] 106 % of control | [8] 98 % of control | [11] 101 % of control

COc1ccc(OC)c(NC(=S)N/N=C(\C)c2cc(Cl)ccc2O)c1
inactive: dose: 12.5 mg/kg/injection, schedule: Q04DX002 (ip), vehicle: Klucel (hydroxypropylcellulose) (HPC) 102 % of control | dose: 25.0 mg/kg/injection, schedule: Q04DX002 (ip), vehicle: Klucel (hydroxypropylcellulose) (HPC) 102 % of control | dose: 50.0 mg/kg/injection, schedule: Q04DX002 (ip), vehicle: Klucel (hydroxypropylcellulose) (HPC) 118 % of control

O=C(Nc1ccc(Nc2ccccc2)cc1)Nc1cc(C(F)(F)F)ccc1Cl
inactive: [2] 103 % of control | [6] 93 % of control | [9] 87 % of control

CCOC(=O)C(=CNc1ccccn1)C(=O)OCC
inactive: [12] 100 % of control | [13] 93 % of control | [14] 104 % of control | [15] 93 % of control | [16] 97 % of control | [17] 97 % of control

c1ccc(C23c4ccccc4C(=NC4CCCCC4)C2N3C2CCCCC2)cc1 (stereo unspecified)
inactive: dose: 100.0 mg/kg/injection, schedule: Q01DX001 (ip), vehicle: saline 94 % of control | [2] 97 % of control | [4] 93 % of control | dose: 200.0 mg/kg/injection, schedule: Q01DX001 (ip), vehicle: saline 104 % of control | [6] 92 % of control | [8] 94 % of control | dose: 400.0 mg/kg/injection, schedule: Q01DX001 (ip), vehicle: saline 110 % of control | [9] 91 % of control | [11] 98 % of control

CCC(N)Cc1ccc2c(c1)OCO2 (stereo unspecified)
inactive: dose: 25.0 mg/kg/injection, schedule: Q04DX003 (ip), vehicle: saline 98 % of control | [18] 101 % of control | [19] 100 % of control

O=C(Nc1cccc(C(F)(F)F)c1)C(O)C(O)C(O)C(O)CO (stereo unspecified)
inactive: [19] 91 % of control | [20] 94 % of control | [21] 91 % of control

CC(=O)NC(CSSCC(N)C(=O)O)C(=O)O (stereo unspecified) (tested in a mixture with another compound)
inactive: dose: 12.5 mg/kg/injection, schedule: Q04DX002 (ip), vehicle: DMSO 93 % of control | dose: 25.0 mg/kg/injection, schedule: Q04DX002 (ip), vehicle: DMSO 103 % of control | dose: 50.0 mg/kg/injection, schedule: Q04DX002 (ip), vehicle: DMSO 93 % of control

N#C/C(=C\c1c[nH]c2ccccc12)C(N)=O
inactive: [18] 104 % of control | [13] 93 % of control | [19] 107 % of control | [15] 104 % of control | [20] 95 % of control | [17] 96 % of control | [21] 97 % of control

O=C(OCc1ccccc1)Oc1ccc2ccccc2c1
inactive: [4] 102 % of control | [8] 95 % of control | [11] 95 % of control

COc1ccc2c(c1)CCC1C2CCC2C(O)CCC(=O)C21 (stereo unspecified)
inactive: dose: 50.0 mg/kg/injection, schedule: Q01DX001 (ip), vehicle: Klucel (hydroxypropylcellulose) (HPC) 102 % of control | [1] 102 % of control | [5] 98 % of control

c1ccc2c(c1)cc1ccc3cc4ccccc4c4ccc2c1c34
inactive: dose: 50.0 mg/kg/injection, schedule: Q01DX009 (ip), vehicle: acetone 110 % of control | dose: 100.0 mg/kg/injection, schedule: Q01DX001 (ip), vehicle: carboxymethylcellulose (CMC) 100 % of control | dose: 100.0 mg/kg/injection, schedule: Q01DX009 (ip), vehicle: acetone 105 % of control | dose: 200.0 mg/kg/injection, schedule: Q01DX001 (ip), vehicle: carboxymethylcellulose (CMC) 100 % of control | dose: 200.0 mg/kg/injection, schedule: Q01DX009 (ip), vehicle: acetone 107 % of control | dose: 400.0 mg/kg/injection, schedule: Q01DX001 (ip), vehicle: carboxymethylcellulose (CMC) 100 % of control

O=N[O-].O=N[O-].O=N[O-].O=N[O-].O=N[O-].O=N[O-].[Ni]
inactive: dose: 25.0 mg/kg/injection, schedule: Q04DX002 (ip), vehicle: saline 106 % of control | dose: 50.0 mg/kg/injection, schedule: Q04DX002 (ip), vehicle: saline 113 % of control | [22] 106 % of control

Nc1cc(S(N)(=O)=O)ccc1N1CCCCC1
inactive: [13] 95 % of control | [15] 96 % of control | [17] 101 % of control

COc1cccc(CCCCO)c1
inactive: dose: 50.0 mg/kg/injection, schedule: Q01DX009 (ip), vehicle: saline with Tween-80 91 % of control | [12] 91 % of control

COc1ccc(NC(=O)c2ccco2)cc1
inactive: [3] 123 % of control | [7] 112 % of control | [10] 123 % of control

C1OCC(C2OCOC3COCOC32)O1 (stereo unspecified)
inactive: [4] 98 % of control | [8] 95 % of control | [11] 95 % of control

CCc1ccccc1NC(=O)N(Cc1ccccc1)Cc1ccccc1
inactive: [2] 101 % of control | [6] 97 % of control | [9] 96 % of control

CCCCCCC(C)OC(=O)c1ccccc1C(=O)OC(C)CCCCCC (stereo unspecified)
inactive: [22] 102 % of control | [23] 95 % of control | [24] 102 % of control

Cn1cc(C=O)c2nccnc21
inactive: dose: 50.0 mg/kg/injection, schedule: Q01DX009 (ip), vehicle: saline 98 % of control | dose: 100.0 mg/kg/injection, schedule: Q01DX009 (ip), vehicle: saline 95 % of control | [19] 100 % of control | dose: 200.0 mg/kg/injection, schedule: Q01DX009 (ip), vehicle: saline 98 % of control | [20] 100 % of control

CC(N=Nc1ccccc1)/N=N/c1nn[nH]n1 (stereo unspecified)
inactive: [4] 100 % of control | [8] 94 % of control | [11] 96 % of control

CCN(CC)Cc1cc(Nc2cc(C)nc(/N=C(\N)Nc3cc(Cl)cc(Cl)c3)n2)ccc1O
inactive: [13] 98 % of control

CCC(Cl)COP(=O)(OCC(Cl)CC)OC(c1ccc(Cl)c(Cl)c1)P(=O)(OCC(Cl)CC)OCC(Cl)CC (stereo unspecified)
inactive: dose: 50.0 mg/kg/injection, schedule: Q01DX001 (ip), vehicle: saline with Tween-80 95 % of control | [25] 103 % of control | [26] 93 % of control

N#CC(C#N)C1c2ccccc2C([N+](=O)[O-])c2ccccc21 (stereo unspecified)
inactive: [12] 103 % of control | [13] 88 % of control | [14] 96 % of control | [15] 93 % of control | [16] 98 % of control | [17] 101 % of control

Cc1cc(C(C)C)cc(C(C)C)c1
inactive: [2] 96 % of control | [4] 94 % of control | [6] 95 % of control | [8] 102 % of control | [11] 94 % of control

O=P(NC12CC3CC(CC(C3)C1)C2)(OCc1ccccc1)OCc1ccccc1
inactive: dose: 75.0 mg/kg/injection, schedule: Q01DX009 (ip), vehicle: Klucel (hydroxypropylcellulose) (HPC) 97 % of control | dose: 150.0 mg/kg/injection, schedule: Q01DX009 (ip), vehicle: Klucel (hydroxypropylcellulose) (HPC) 90 % of control | dose: 300.0 mg/kg/injection, schedule: Q01DX009 (ip), vehicle: Klucel (hydroxypropylcellulose) (HPC) 95 % of control

CC(=O)NC1C(OCc2ccccc2)OC(CO)C(O)C1OCc1ccccc1 (stereo unspecified)
inactive: [25] 100 % of control | [26] 107 % of control | dose: 400.0 mg/kg/injection, schedule: Q01DX001 (ip), vehicle: saline with Tween-80 96 % of control

CCOP(=O)(CN1CCCCC1)OCC
inactive: [22] 104 % of control | [23] 96 % of control | [24] 104 % of control

Source: PubChem BioAssay AID248 (DTP/NCI, 2004)
